In ChEMBL document CHEMBL2321762, “Design, synthesis, and SAR of N-((1-(4-(propylsulfonyl)piperazin-1-yl)cycloalkyl)methyl)benzamide inhibitors of glycine transporter-1” (Bioorg Med Chem Lett, 2013):
Each block holds one molecule with its values, some of them ahead of it. Active and inactive are the calls of the source. No cut-off for these calls is given here.

Experiments:
[1] = Metabolic stability in human liver microsomes assessed as compound remaining at 10 uM after 60 mins; format: ADME, Microsome; details: read-out: Stability
[2] = target: T1, Sodium- and chloride-dependent glycine transporter 1 (Homo sapiens, UniProt P48067); experiment: Inhibition of GlyT1a in human JAR cells assessed as inhibition of [3H]glycine uptake by scintillation proximity assay; format: cell-based
T1 sequence (P48067 whole entry): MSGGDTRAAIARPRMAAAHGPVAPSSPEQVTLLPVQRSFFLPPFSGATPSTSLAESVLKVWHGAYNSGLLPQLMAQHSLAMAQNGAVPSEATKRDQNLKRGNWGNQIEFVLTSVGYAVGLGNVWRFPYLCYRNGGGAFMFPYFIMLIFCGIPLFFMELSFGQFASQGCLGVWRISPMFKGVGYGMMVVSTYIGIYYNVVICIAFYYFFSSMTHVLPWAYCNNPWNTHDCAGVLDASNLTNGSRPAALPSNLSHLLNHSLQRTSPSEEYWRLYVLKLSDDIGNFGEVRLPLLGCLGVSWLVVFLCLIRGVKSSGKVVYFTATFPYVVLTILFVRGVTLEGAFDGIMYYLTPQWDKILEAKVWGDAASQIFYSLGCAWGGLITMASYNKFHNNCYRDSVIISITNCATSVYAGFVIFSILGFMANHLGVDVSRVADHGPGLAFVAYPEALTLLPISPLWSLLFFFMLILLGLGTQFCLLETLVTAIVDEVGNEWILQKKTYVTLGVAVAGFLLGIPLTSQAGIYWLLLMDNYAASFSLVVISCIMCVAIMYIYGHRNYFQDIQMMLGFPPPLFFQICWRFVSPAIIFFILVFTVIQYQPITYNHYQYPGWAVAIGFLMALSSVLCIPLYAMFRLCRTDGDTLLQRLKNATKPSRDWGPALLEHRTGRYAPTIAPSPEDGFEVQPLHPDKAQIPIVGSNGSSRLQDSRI

[3] = target: T2, Sodium- and chloride-dependent glycine transporter 2 (Homo sapiens, UniProt Q9Y345); experiment: Inhibition of human GlyT2 expressed in HEK293 cells assessed as inhibition of [3H]glycine uptake by scintillation proximity assay; format: cell-based
T2 sequence (Q9Y345 whole entry): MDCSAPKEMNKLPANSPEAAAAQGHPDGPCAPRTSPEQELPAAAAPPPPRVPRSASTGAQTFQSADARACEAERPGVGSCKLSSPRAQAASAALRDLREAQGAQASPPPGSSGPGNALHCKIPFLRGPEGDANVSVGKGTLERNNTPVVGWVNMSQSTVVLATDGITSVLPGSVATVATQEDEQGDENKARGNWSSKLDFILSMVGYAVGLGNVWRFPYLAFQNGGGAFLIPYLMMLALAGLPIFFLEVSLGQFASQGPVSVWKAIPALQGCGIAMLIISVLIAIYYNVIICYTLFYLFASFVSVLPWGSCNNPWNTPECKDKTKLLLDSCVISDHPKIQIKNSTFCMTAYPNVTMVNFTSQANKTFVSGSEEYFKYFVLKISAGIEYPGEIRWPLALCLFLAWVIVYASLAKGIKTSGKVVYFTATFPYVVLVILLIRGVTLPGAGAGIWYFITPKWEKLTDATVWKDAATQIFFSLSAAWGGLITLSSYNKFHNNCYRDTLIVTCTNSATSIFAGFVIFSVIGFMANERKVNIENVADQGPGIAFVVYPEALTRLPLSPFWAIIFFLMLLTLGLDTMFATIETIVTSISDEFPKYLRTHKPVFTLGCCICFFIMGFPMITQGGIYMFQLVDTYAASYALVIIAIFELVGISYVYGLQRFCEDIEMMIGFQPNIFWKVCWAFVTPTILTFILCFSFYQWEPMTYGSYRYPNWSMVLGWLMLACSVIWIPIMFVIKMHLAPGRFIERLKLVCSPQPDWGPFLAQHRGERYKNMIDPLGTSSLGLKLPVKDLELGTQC

[4] = Plasma protein binding in rat; format: ADME, cell-free; details: read-out: PPB (converted)
[5] = Oral bioavailability in rat at 10 mg/kg; format: ADME, organism-based; details: in vivo
[6] = Terminal half life in rat at 2 mg/kg, iv and 10 mg/kg, po; format: ADME, organism-based; details: in vivo, read-out: beta t1/2 (converted)
[7] = Tmax in rat at 2 mg/kg, iv and 10 mg/kg, po; format: ADME, organism-based; details: in vivo
[8] = AUC (0 to infinity) in rat at 2 mg/kg, iv and 10 mg/kg, po; format: ADME, organism-based; details: plasma
[9] = Cmax in rat at 2 mg/kg, iv and 10 mg/kg, po; format: ADME, organism-based; details: in vivo
[10] = Total plasma clearance in rat at 2 mg/kg, iv and 10 mg/kg, po; format: ADME, organism-based
[11] = Volume of distribution at steady state in rat at 2 mg/kg, iv and 10 mg/kg, po; format: ADME, organism-based; details: in vivo, read-out: Vdss
Salmonella typhimurium [12] = experiment: Mutagenicity against Salmonella typhimurium TA100 by mini-AMES test in absence of rat S9 fraction; format: toxicity, organism-based; details: salmonella enterica subsp. enterica serovar typhimurium
Salmonella typhimurium [13] = experiment: Mutagenicity against Salmonella typhimurium TA98 by mini-AMES test in absence of rat S9 fraction; format: toxicity, organism-based; details: salmonella enterica subsp. enterica serovar typhimurium
Salmonella typhimurium [14] = experiment: Mutagenicity against Salmonella typhimurium TA100 by mini-AMES test in presence of rat S9 fraction; format: toxicity, organism-based; details: salmonella enterica subsp. enterica serovar typhimurium
Salmonella typhimurium [15] = experiment: Mutagenicity against Salmonella typhimurium TA98 by mini-AMES test in presence of rat S9 fraction; format: toxicity, organism-based; details: salmonella enterica subsp. enterica serovar typhimurium
[16] = Plasma protein binding in human; format: ADME, cell-free; details: read-out: PPB (converted)
[17] = Intrinsic clearance in rat liver microsomes at 1 uM; format: ADME, Microsome; details: read-out: CLH
[18] = Intrinsic clearance in human liver microsomes at 1 uM; format: ADME, Microsome; details: read-out: CLH
Cytochrome P450 2C9 = Cytochrome P450 2C9 (Homo sapiens, UniProt P11712); experiment: Inhibition of CYP2C9 (unknown origin); format: ADME
Cytochrome P450 2C19 = Cytochrome P450 2C19 (Homo sapiens, UniProt P33261); experiment: Inhibition of CYP2C19 (unknown origin); format: ADME
Cytochrome P450 2D6 = Cytochrome P450 2D6 (Homo sapiens, UniProt P10635); experiment: Inhibition of CYP2D6 (unknown origin); format: ADME
Cytochrome P450 3A4 = Cytochrome P450 3A4 (Homo sapiens, UniProt P08684); experiment: Inhibition of CYP3A4 (unknown origin); format: ADME
[19] = Ratio of drug uptake in brain to plasma in rat at 10 to 75 mg/kg, po after 30 mins; format: ADME, organism-based; parameters: dose 10-75 mg/kg, route oral; details: read-out: BPR
[20] = Drug uptake in po dosed rat CSF after 30 mins; format: ADME, organism-based, Cerebrospinal fluid; details: in vivo, 0.5 h
Rattus norvegicus [21] = experiment: Antischizophrenic activity in rat assessed as increased glycine level in CSF at 30 to 75 mg/kg, po after 30 mins relative to control; format: functional, organism-based
Rattus norvegicus [22] = experiment: Antischizophrenic activity in po dosed rat assessed as increased glycine level in CSF after 30 mins relative to control; format: functional, organism-based

Cytochrome P450 2D6, sequence (P10635 whole entry): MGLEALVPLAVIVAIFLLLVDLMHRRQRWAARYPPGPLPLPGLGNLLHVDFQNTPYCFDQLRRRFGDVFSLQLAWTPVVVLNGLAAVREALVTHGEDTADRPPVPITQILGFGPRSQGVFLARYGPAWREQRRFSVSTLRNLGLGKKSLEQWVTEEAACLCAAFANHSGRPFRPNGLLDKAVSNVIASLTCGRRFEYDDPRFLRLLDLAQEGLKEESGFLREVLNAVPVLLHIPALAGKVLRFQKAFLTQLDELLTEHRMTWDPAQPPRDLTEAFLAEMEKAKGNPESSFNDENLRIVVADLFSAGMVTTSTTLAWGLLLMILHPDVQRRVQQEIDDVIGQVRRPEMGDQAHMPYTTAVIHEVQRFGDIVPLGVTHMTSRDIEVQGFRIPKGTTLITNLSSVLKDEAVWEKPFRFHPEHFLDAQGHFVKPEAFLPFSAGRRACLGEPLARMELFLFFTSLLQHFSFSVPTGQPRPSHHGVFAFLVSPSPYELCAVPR
Cytochrome P450 3A4, sequence (P08684 whole entry): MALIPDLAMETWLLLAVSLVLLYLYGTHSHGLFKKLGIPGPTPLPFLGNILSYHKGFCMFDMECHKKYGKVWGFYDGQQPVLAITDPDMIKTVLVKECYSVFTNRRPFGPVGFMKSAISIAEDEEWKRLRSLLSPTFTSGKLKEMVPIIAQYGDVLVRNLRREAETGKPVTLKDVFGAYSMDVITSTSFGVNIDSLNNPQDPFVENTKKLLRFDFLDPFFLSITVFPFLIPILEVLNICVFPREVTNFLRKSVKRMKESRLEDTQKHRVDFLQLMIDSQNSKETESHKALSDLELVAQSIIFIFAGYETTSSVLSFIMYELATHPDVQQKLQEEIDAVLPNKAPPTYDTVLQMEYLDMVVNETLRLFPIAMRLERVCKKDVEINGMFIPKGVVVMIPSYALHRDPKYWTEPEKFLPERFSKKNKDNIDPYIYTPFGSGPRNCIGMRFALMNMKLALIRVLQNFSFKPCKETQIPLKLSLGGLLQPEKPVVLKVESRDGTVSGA
Cytochrome P450 2C19, sequence (P33261 whole entry): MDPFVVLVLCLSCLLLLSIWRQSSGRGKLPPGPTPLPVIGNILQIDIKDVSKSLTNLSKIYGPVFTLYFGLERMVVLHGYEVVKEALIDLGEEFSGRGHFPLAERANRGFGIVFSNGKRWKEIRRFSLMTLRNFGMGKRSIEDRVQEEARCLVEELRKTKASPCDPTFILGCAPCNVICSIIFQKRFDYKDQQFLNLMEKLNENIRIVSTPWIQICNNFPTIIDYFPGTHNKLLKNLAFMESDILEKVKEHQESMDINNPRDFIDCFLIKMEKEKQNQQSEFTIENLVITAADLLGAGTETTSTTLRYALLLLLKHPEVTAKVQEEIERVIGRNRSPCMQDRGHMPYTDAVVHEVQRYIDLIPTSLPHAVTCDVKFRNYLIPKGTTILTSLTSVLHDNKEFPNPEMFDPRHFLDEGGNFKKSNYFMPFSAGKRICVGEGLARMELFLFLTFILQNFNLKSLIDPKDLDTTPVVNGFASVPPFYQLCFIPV
Cytochrome P450 2C9, sequence (P11712 whole entry): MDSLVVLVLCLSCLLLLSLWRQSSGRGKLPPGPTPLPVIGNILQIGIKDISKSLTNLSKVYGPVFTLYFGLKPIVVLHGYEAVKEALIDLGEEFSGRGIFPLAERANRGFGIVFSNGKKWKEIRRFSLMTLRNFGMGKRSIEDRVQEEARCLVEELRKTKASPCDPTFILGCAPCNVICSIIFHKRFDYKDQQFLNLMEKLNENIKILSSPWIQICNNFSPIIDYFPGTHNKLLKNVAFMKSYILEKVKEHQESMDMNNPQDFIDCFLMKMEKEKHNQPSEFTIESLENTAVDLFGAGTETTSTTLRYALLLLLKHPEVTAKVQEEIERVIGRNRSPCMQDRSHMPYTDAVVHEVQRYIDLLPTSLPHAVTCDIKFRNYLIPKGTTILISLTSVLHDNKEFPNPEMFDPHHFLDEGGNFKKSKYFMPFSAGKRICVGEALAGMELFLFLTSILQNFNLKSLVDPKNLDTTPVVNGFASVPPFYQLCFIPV

Structure (SMILES): CCCS(=O)(=O)N1CCN(C2(CNC(=O)c3ccc(OC)cc3F)CCCCC2)CC1
- remaining at 1 h, 10 µM [1]: 4%
- IC50 [2]: 17.1 nM
- IC50 [3]: > 75000 nM

Structure (SMILES): CCCS(=O)(=O)N1CCN(C2(CNC(=O)c3ccc(Cl)c(Cl)c3)CCCCC2)CC1
- remaining at 1 h, 10 µM [1]: 5%
- IC50 [3]: > 75000 nM

Structure (SMILES): CCCS(=O)(=O)N1CCN(C2(CNC(=O)c3ccc(Cl)cc3Cl)CCCCC2)CC1
- remaining at 1 h, 10 µM [1]: 11%
- IC50 [2]: 22.7 nM
- IC50 [3]: > 75000 nM

Structure (SMILES): CCCS(=O)(=O)N1CCN(C2(CNC(=O)c3c(N)cccc3Cl)CCCCC2)CC1
- remaining at 1 h, 10 µM [1]: 29%
- IC50 [2]: 15.1 nM
- IC50 [3]: > 75000 nM

Structure (SMILES): CCCS(=O)(=O)N1CCN(C2(CNC(=O)c3c(Cl)cccc3Cl)CCCCC2)CC1
- remaining at 1 h, 10 µM [1]: 3%
- IC50 [2]: 12.8 nM
- IC50 [3]: > 75000 nM

Structure (SMILES): CCCS(=O)(=O)N1CCN(C2(CNC(=O)c3ccccc3C(F)(F)F)CCCCC2)CC1
- remaining at 1 h, 10 µM [1]: 5%

Structure (SMILES): CCCS(=O)(=O)N1CCN(C2(CNC(=O)c3c(F)cccc3F)CCCCC2)CC1
- remaining at 1 h, 10 µM [1]: 16%
- IC50 [3]: > 75000 nM

Structure (SMILES): CCCS(=O)(=O)N1CCN(C2(CNC(=O)c3cccc(C(F)(F)F)c3)CCCCC2)CC1
- IC50 [2]: 523 nM
- IC50 [3]: > 75000 nM

Structure (SMILES): CCCS(=O)(=O)N1CCN(C2(CNC(=O)c3ccccc3OC(F)(F)F)CCCCC2)CC1
- remaining at 1 h, 10 µM [1]: 2%
- IC50 [3]: > 75000 nM

Structure (SMILES): CCCS(=O)(=O)N1CCN(C2(CNC(=O)c3c(OC)cc(C(F)(F)F)cc3C(F)(F)F)CCCCC2)CC1
- remaining at 1 h, 10 µM [1]: 10%
- IC50 [2]: 4.4 nM
- IC50 [3]: > 75000 nM

Structure (SMILES): CCCS(=O)(=O)N1CCN(C2(CNC(=O)c3ccc(OC(F)(F)F)cc3)CCCCC2)CC1
- remaining at 1 h, 10 µM [1]: 11%
- IC50 [3]: > 75000 nM

Structure (SMILES): CCCS(=O)(=O)N1CCN(C2(CNC(=O)c3c(F)cccc3F)C[C@H]3C[C@H]3C2)CC1 (mixture of isomers)
- IC50 [2]: 621 nM

Structure (SMILES): CCCS(=O)(=O)N1CCN(C2(CNC(=O)c3ccc(F)cc3C)CCCCC2)CC1
- remaining at 1 h, 10 µM [1]: 2%
- IC50 [3]: > 75000 nM

The next lines start with results.

- remaining at 1 h, 10 µM [1]: 1%
- IC50 [2]: 6.1 nM
Structure (SMILES): CCCS(=O)(=O)N1CCN(C2(CNC(=O)c3c(OC)cc(F)cc3SC)CCCCC2)CC1

- remaining at 1 h, 10 µM [1]: 4%
- IC50 [2]: 175 nM
- IC50 [3]: > 75000 nM
Structure (SMILES): CCCS(=O)(=O)N1CCN(C2(CNC(=O)c3ccc(Cl)cc3)CCCCC2)CC1

- remaining at 1 h, 10 µM [1]: 1%
- IC50 [2]: 77.9 nM
- IC50 [3]: > 75000 nM
Structure (SMILES): CCCS(=O)(=O)N1CCN(C2(CNC(=O)c3cccc(C(F)(F)F)c3Cl)CCCCC2)CC1

- fraction unbound [4]: 0.16
- bioavailability [5]: 25.7%
- half-life [6]: 2.9 h
- Tmax [7]: 1.5 h
- AUC(0-inf) [8]: 2000 ng·h/mL
- Cmax [9]: 486 ng/mL
- clearance [10]: 22 mL/min/kg
- Vd [11]: 3.26 L/kg
- fraction unbound [16]: 0.13
- microsomal CLint at 1 µM [17]: 5.5 µL/min/mg
- microsomal CLint at 1 µM [18]: 13 µL/min/mg
- IC50 (Cytochrome P450 2C9): > 10000 nM
- IC50 (Cytochrome P450 2C19): > 10000 nM
- IC50 (Cytochrome P450 2D6): > 10000 nM
- IC50 (Cytochrome P450 3A4): > 10000 nM
- Kp at 0.5 h [19]: 0.13
- Drug uptake [20]: Dose-dependent effect
- remaining at 1 h, 10 µM [1]: 64%
Structure (SMILES): CCCS(=O)(=O)N1CCN(C2(CNC(=O)c3c(F)cccc3F)CCC(F)(F)CC2)CC1
- Activity (Salmonella typhimurium [12]): Non-toxic
- Activity (Salmonella typhimurium [13]): Non-toxic
- Activity (Salmonella typhimurium [14]): Non-toxic
- Activity (Salmonella typhimurium [15]): Non-toxic
- Activity (Rattus norvegicus [21]): Active
- Activity (Rattus norvegicus [22]): Dose-dependent effect

- remaining at 1 h, 10 µM [1]: 100%
- IC50 [2]: 500 nM
Structure (SMILES): CCCS(=O)(=O)N1CCN(C2(CNC(=O)c3ccc(Cl)cc3Cl)CCOCC2)CC1

- remaining at 1 h, 10 µM [1]: 40%
Structure (SMILES): CCCS(=O)(=O)N1CCN(C2(CNC(=O)c3c(N)cccc3Cl)CCN(C)CC2)CC1

- IC50 [2]: 6.3 nM
Structure (SMILES): CCCS(=O)(=O)N1CCN(C2(CNC(=O)c3c(N)cccc3Cl)CCCCCC2)CC1
